Experiments:
[1] = Paclitaxel plasma pharmacokinetics, cycle 1 day 1; type: in vivo, human
[2] = paclitaxel 100 mg/m^2; patients receiving PIs (nelfinavir, indinavir, other multiple protease inhibitors); Kaposi Sarcoma and HIV; cited from earlier work
[3] = Adverse events, NCI CTCAE version 4.0, worst grade in any cycle; type: in vivo, human; conditions: 2 patients, first vorinostat dose level (400 mg orally days 1-5 of each cycle)
[4] = Ritonavir cohort, cycle 1, paclitaxel 175 mg/m^2 IV with carboplatin

SMILES	differences in Cmax or AUCinf between the 2 cohorts ([1]; 6 patients, ritonavir vs non-ritonavir)	Cl [1, 4]	Time > C 0.5 µM [1, 4]	duration spent at a paclitaxel concentration >0.05 µM ([1]; non-ritonavir cohort)	pharmacokinetic interaction with ritonavir ([1]; ritonavir at a boosting dose for ART in combination with paclitaxel)	duration spent at a paclitaxel concentration >0.05 µM ([1]; ritonavir cohort)	Paclitaxel exposure as measured by AUC [2]	toxicity of PCb combination with vorinostat [3]
CC(=O)O[C@H]1C(=O)[C@@]2(C)[C@H]([C@H](OC(=O)c3ccccc3)[C@]3(O)C[C@H](OC(=O)[C@H](O)[C@@H](NC(=O)c4ccccc4)c4ccccc4)C(C)=C1C3(C)C)[C@]1(OC(C)=O)CO[C@@H]1C[C@@H]2O [Paclitaxel]	no significant differences	4.1 L/hr/m^2	22.7 h	23.8 h	no evidence for pharmacokinetic interaction	22.7 h	5.5 ± 2.2 µM·h	
O=C(CCCCCCC(=O)Nc1ccccc1)NO [vorinostat]								without prohibitive toxicity

Reference: publication PMC9355812 (The Oncologist, 2022)
